Results on seven molecules are retold here after patent publication US20070099929A1, “Substituted thiophenes” (AiCuris GmbH & Co. KG, priority 2003, published 2007).

This assay relates to HCV replicon HuH5-2. The assay can be described thus: Cellular HCV-RNA replication assay (replicon system), luciferase reporter, with Alamar Blue cytotoxicity test. It counts as cell-based, hepatitis C virus. Particulars: for SI (selectivity index) = CC50/EC50: CC50 from Alamar Blue fluorescence, EC50 from luciferase activity, HuH5-2 cells; for pEC50: Hepatitis C virus, Huh-5-2, HuH5-2 replicon cells, substance concentration with which the luciferase activity decreases by 50% compared with the untreated replicon control, incubation 4-5 days. An excerpt: 1. Measurement of the Activity of Substances in a Cellular HCV-RNA Replication Assay (“Replicon System”)
Hepatitis C cannot as of yet be replicated reproducibly with high titres in cell culture. The activity of substances is therefore detected in the so-called replicon system. This comprises parts of the HCV genome or complete HCV genomes which are transferred into cell lines (here HuH-7 cells) of human origin. It is possible by insertion of a selection marker to obtain stable cell lines which, under selection pressure, replicate genomic or subgenomic RNA of HCV [Lohmann et al., Science 285, 110-113 (1999); Blight et al., Science 290, 1972-1974 (2000)]. The HuH5-2 cells used here harbour a selectable, luciferase-carrying, cell culture-adapted replicon as described in EP 1 043 399. The cells are cultured in Dulbecco's modified […] medium (DMEM) with 10% fetal calf serum (FCS), 1% Pen/Strep, 1% NEAA, 1% L-glutamine and 250 μg/ml Geneticin (G418). To carry out the assays described below, the cells are initially trypsinized and resuspended with the DMEM medium described above without G418. Depending on the assay, the cells are seeded in 24-well or 384-well plates. Depending on the reading or assay method used, transparent or white assay plates coated for cell culture are used.
The test compounds are made up as 50 mM stock solution in DMSO. To determine the EC50 values, the substances subsequently undergo a serial two-fold dilution in DMEM. The dilutions are transferred as doublets to the cell culture plates. The trypsinized cells which have been resuspended in medium are then added. The final concentration of the test substances in the cell culture wells is for example 300 μM to 0.0001 μM. Interferon-alpha serves as reference substance in concentrations of 60 IU/ml to 1 IU/ml. Antimycin-alpha serves as cytotoxicity control in concentrations of 2 μM to 0.03,M. Untreated cells serve as reference. The plates are then incubated at 37° C. under 5% CO2 for 4-5 days. The various measurements and the quantification of the HCV replicon RNA then take place.
Alamar Blue is a water-soluble redox indicator which is reduced as a function of the metabolic activity of the cells to be investigated. The Alamar Blue test is used as quantitative cytotoxicity assay. For this purpose, the cells are seeded with the appropriate test substances (see above) in white 384-well cell culture plates and incubated correspondingly at 37° C. under 5% CO2 for 4 days. 4 to 6 hours before the actual measurement, 5 μl of Alamar Blue are added per well. The fluorescence is then measured at an […]. If this test is to be followed by chemiluminescence measurement (see below) on the same plate, the dye solution is aspirated off from the cells and the latter are subsequently washed once with PBS. The PBS is likewise aspirated off again from the cells.
A reporter gene is introduced into the HCV replicon HuH5-2, in this case the gene for the luciferase enzyme of Photinus pyralis. After the addition of the luciferase reagent (20 mM Tris/HCl, 20 mM tricine, 2.67 mM MgSO4, 0.1 mM EDTA, 33.3 mM DTT, 0.27 mM coenzyme A, 0.47 mM luciferin, 0.53 mM ATP, pH 7.8) to the cells, the chemiluminescence is measured in a luminometer. Normally, the photons are measured in a period of from 10 sec to 60 sec.
The following data can be determined from the assay plates: • CC50=substance concentration in μM with which the Alamar Blue fluorescence decreases by 50% compared with the untreated control; • EC50=substance concentration with which the luciferase activity decreases by 50% compared with the untreated replicon control; • SI (selectivity index)=CC50/EC50. […]

SMILES strings stand for the structures. pEC50: −log10 of the molar value.

Take `COCC(C)N(C(=O)C1CCC(C)CC1)c1sc(-c2ccccc2)cc1C(=O)O` (centres unmarked) [Example 49]: the “SI (selectivity index) = CC50/EC50” value is given as more than 63 and the pEC50 is 6.10.
In the case of `CC(C)N(c1sc(-c2ccccc2)cc1C(=O)O)C(=O)[C@H]1CC[C@H](C)CC1` [Example 1, 2-[Isopropyl-(trans-4-methylcyclohexanecarbonyl)amino]-5-phenylthiophene-3-carboxylic acid], the “SI (selectivity index) = CC50/EC50” value is recorded as more than 50 and the pEC50 is 6.00.
Regarding `C[C@H]1CC[C@H](C(=O)N(c2sc(-c3ccccc3)cc2C(=O)O)C2CCOCC2)CC1` [Example 42, 2-[[(trans-4-Methylcyclohexyl)carbonyl](tetrahydro-2H-pyran-4-yl)amino]-5-phenylthiophene-3-carboxylic acid], the “SI (selectivity index) = CC50/EC50” value is more than 100 and the pEC50 is 6.30.
The corresponding values for `CC(C)N(C(=O)[C@@H]1CC[C@@H](C)C[C@@H]1O)c1sc(-c2ccccc2)cc1C(=O)O` (single isomer, unassigned) [Example 54] are more than 277 and 6.74.
For `CC(C)N(c1sc(-c2cccnc2)cc1C(=O)O)C(=O)[C@H]1CC[C@H](C)CC1` [Example 30], the “SI (selectivity index) = CC50/EC50” value is more than 38 and the pEC50 is 5.89.
The corresponding values for `CC(C)N(c1sc(-c2ccc(F)cc2)cc1C(=O)O)C(=O)[C@H]1CC[C@H](C)CC1` [Example 19, 5-(4-Fluorophenyl)-2-{isopropyl[(trans-4-methylcyclohexyl)carbonyl]amino}thiophene-3-carboxylic acid] are more than 100 and 6.40.
The corresponding values for `CC(C)N(c1sc(C2CCN(S(C)(=O)=O)CC2)cc1C(=O)O)C(=O)[C@H]1CC[C@H](C)CC1` [Example 35, 2-{Isopropyl[(trans-4-methylcyclohexyl)carbonyl]amino}-5-[1-(methylsulfonyl)piperidin-4-yl]thiophene-3-carboxylic acid] are more than 18 and 5.55.

As usually defined, the pEC50 is the EC50 on a negative log10 scale, so that one unit is a factor of ten.
